# How the values were obtained:
# MATIN = assay: Post-emergence herbicidal action against MATIN; format: in vivo, Matricaria inodora; conditions: application rate 80 g/ha, rated visually about 3 weeks after treatment
# Method in brief: (§1)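 Greenhouse post-emergence test: compound sprayed onto green plant parts at one-leaf stage as WP or EC preparation with 0.5% additive, water rate 600 l/ha. Percent activity scored by eye after roughly 3 weeks, where 0% matches controls and 100% means death.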
# SETVI = assay: Post-emergence herbicidal action against SETVI; format: in vivo, Setaria viridis; conditions: application rate 80 g/ha, rated visually after about 3 weeks
# Method in brief: as §1
# HORMU = assay: Post-emergence herbicidal action against HORMU; format: in vivo, Hordeum murinum; conditions: application rate 80 g/ha
# Method in brief: as §1
# ECHCG = assay: Post-emergence herbicidal action against ECHCG; format: in vivo, Echinochloa crus-galli; conditions: application rate 80 g/ha, rated visually after about 3 weeks
# Method in brief: as §1
# LOLRI = assay: Post-emergence herbicidal action against LOLRI; format: in vivo, Lolium rigidum; conditions: application rate 80 g/ha, rated visually after about 3 weeks
# Method in brief: as §1
# PHBPU = assay: Post-emergence herbicidal action against PHBPU; format: in vivo, Pharbitis purpurea; conditions: application rate 80 g/ha, rated visually about 3 weeks after treatment
# Method in brief: as §1
# AMARE = assay: Post-emergence herbicidal action against AMARE; format: in vivo, Amaranthus retroflexus; conditions: application rate 80 g/ha, rated visually about 3 weeks after treatment
# Method in brief: as §1
# POLCO = assay: Post-emergence herbicidal action against POLCO; format: in vivo, Polygonum convolvulus; conditions: application rate 80 g/ha, rated visually about 3 weeks after treatment
# Method in brief: as §1
# ALOMY = assay: Post-emergence herbicidal action against ALOMY; format: in vivo, Alopecurus myosuroides; conditions: application rate 80 g/ha, rated visually after about 3 weeks
# Method in brief: as §1
# ABUTH = assay: Post-emergence herbicidal action against ABUTH; format: in vivo, Abutilon theophrasti; conditions: application rate 80 g/ha, rated visually about 3 weeks after treatment
# Method in brief: as §1
# VERPE = assay: Post-emergence herbicidal action against VERPE; format: in vivo, Veronica persica; conditions: application rate 80 g/ha
# Method in brief: as §1
# STEME = assay: Post-emergence herbicidal action against STEME; format: in vivo, Stellaria media; conditions: application rate 80 g/ha, rated visually about 3 weeks after treatment
# Method in brief: as §1
# AVEFA = assay: Post-emergence herbicidal action against AVEFA; format: in vivo, Avena fatua; conditions: application rate 80 g/ha, rated visually after about 3 weeks
# Method in brief: as §1
# VIOTR = assay: Post-emergence herbicidal action against VIOTR; format: in vivo, Viola tricolor; conditions: application rate 80 g/ha, rated visually about 3 weeks after treatment
# Method in brief: as §1
SMILES,Herbicidal action against [%] MATIN (MATIN) [%],Herbicidal action against [%] SETVI (SETVI) [%],Herbicidal action against [%] HORMU (HORMU) [%],Herbicidal action against [%] ECHCG (ECHCG) [%],Herbicidal action against [%] LOLRI (LOLRI) [%],Herbicidal action against [%] PHBPU (PHBPU) [%],Herbicidal action against [%] AMARE (AMARE) [%],Herbicidal action against [%] POLCO (POLCO) [%],Herbicidal action against [%] ALOMY (ALOMY) [%],Herbicidal action against [%] ABUTH (ABUTH) [%],Herbicidal action against [%] VERPE (VERPE) [%],Herbicidal action against [%] STEME (STEME) [%],Herbicidal action against [%] AVEFA (AVEFA) [%],Herbicidal action against [%] VIOTR (VIOTR) [%]
C=CC1(C(=O)NC2C=CC(C(=O)OCCCl)C2)CC(c2cc(F)cc(F)c2)=NO1 (mixture of isomers) [Example I-061],80,90,90,100,90,80,90,90,90,80,90,90,100,80
O=C(O)C1C=CC(NC(=O)C2(C3CC3)CC(c3cc(F)cc(F)c3)=NO2)C1 (centres unmarked) [Example I-094],80,80,90,90,90,90,90,90,100,90,90,90,90,90
COC(=O)[C@H]1C=C[C@H](NC(=O)[C@@]2(C(F)(F)F)CC(c3cc(F)cc(F)c3)=NO2)C1 [Example I-062],80,80,100,90,90,80,80,80,100,80,90,80,100,80
COCCOC(=O)[C@@H]1C=C[C@H](NC(=O)[C@@]2(C)CC(c3cc(F)cc(F)c3)=NO2)C1 [Example I-092],90,80,100,80,90,80,90,80,90,90,90,90,90,80
O=C(OCc1ccccc1)C1C=CC(NC(=O)C2(C(F)(F)F)CC(c3cc(F)cc(F)c3)=NO2)C1 (mixture of isomers) [Example I-065],80,90,90,90,90,80,80,90,90,80,80,90,90,90
O=C(OCC(F)(F)F)C1C=CC(NC(=O)C2(C(F)(F)F)CC(c3cc(F)cc(F)c3)=NO2)C1 (mixture of isomers) [Example I-068],90,90,90,90,90,80,80,90,90,90,80,90,100,90
C=CC1(C(=O)NC2C=CC(C(=O)O)C2)CC(c2cc(F)cc(F)c2)=NO1 (mixture of isomers) [Example I-037],80,90,90,90,90,80,90,90,90,90,90,90,90,90
O=C(OCCCl)C1C=CC(NC(=O)C2(C(F)(F)F)CC(c3cc(F)cc(F)c3)=NO2)C1 (mixture of isomers) [Example I-067],80,90,90,90,90,80,80,90,90,80,80,90,100,80
CC(C)OC(=O)C1C=CC(NC(=O)C2(C(F)(F)F)CC(c3cc(F)cc(F)c3)=NO2)C1 (mixture of isomers) [Example I-064],90,90,90,90,100,80,90,90,90,80,80,80,100,80
CCOCCOC(=O)[C@@H]1C=C[C@H](NC(=O)[C@@]2(C)CC(c3cc(F)cc(F)c3)=NO2)C1 [Example I-093],90,80,100,100,100,80,80,90,100,80,80,80,100,80
